Laboratory results published in patent US6274616A, “N,N-diethylglycolamido ester prodrugs of indole sPLA2 inhibitors” (Eli Lilly and Company, priority 2000, dated 2001).

Legend:
[1] = target: recombinant human secreted phospholipase A2; settings: cited from earlier work
[2] = target: recombinant human secreted phospholipase A2; settings: guinea pig lung tissue; data from U.S. Pat. No. 5,654,326; read-out: Tissue test secreted PLA2 Apparent KB; cited from earlier work
[3] = Assay III: Rat Plasma Pharmacokinetics Study (oral bioavailability); format: in vivo, Rat (Fischer 344)
Method: The bioavailability of the compound of the invention, ((3-(2-amino-1,2-dioxoethyl)-1-((1,1'-biphenyl)-3-ylmethyl)-2-methyl-1H-indol-4-yl)oxy)acetic acid N,N-diethylglycolamido ester, was determined using a Rat Plasma Pharmacokinetics Study:
The purpose of this assay was to evaluate and compare the oral delivery for selected sPLA2 inhibitors.
The amount of sPLA2 inhibitor was corrected for free acid equivalents.
Suspension of sPLA2 inhibitor in 10% Acacia, prepared just prior to dose administration
Dose: 10 mg/kg (of the parent acid)
Blood samples (0.8 ml) were obtained at the following times: 0.5, 1, 2, 4, 8 and 24 hours (2 rats/timepoint)
Plasma was assayed by HPLC to measure concentrations of the different sPLA2 inhibitors (as free acids).
Cmax (maximal plasma concentrations), and AUC values were determined from the mean plasma concentration-time profiles.

SMILES	IC50 ([1]; chromogenic assay, 3-4 tests, data from U.S. Pat. No. 5,654,326, read-out: Inhibition of human secreted PLA2 IC50 ± mean deviation (3-4 tests)) [nM]	inhibiting sPLA2 (conclusion in words) ([1]; conclusion of Assay 1, Table I)	Kb [2] [nM]	oral bioavailability compared with other esters (in words) ([3]; conclusion from Table 3)	oral bioavailability compared with other esters (in words) ([3]; conclusion from Table 3, listed as compound of formula (I))
Cc1c(C(=O)C(N)=O)c2c(OCC(=O)O)cccc2n1Cc1cccc(-c2ccccc2)c1 [Compound of formula (II), ((3-(2-amino-1,2-dioxoethyl)-1-((1,1'-biphenyl)-3-ylmethyl)-2-methyl-1H-indol-4-yl)oxy)acetic acid]	4.33 ± 2.31	highly active in inhibiting sPLA2	57 ± 11		
CCN(CC)C(=O)COC(=O)COc1cccc2c1c(C(=O)C(N)=O)c(C)n2Cc1cccc(-c2ccccc2)c1 [N,N-diethylglycolamido, ((3-(2-amino-1,2-dioxoethyl)-1-((1,1'-biphenyl)-3-ylmethyl)-2-methyl-1H-indol-4-yl)oxy)acetic acid N,N-diethylglycolamido ester]				unexpectedly more bioavailable than many other esters of the sPLA2 inhibitor	highly bioavailable upon oral administration compared to other common ester type prodrugs
